Experimental data from ChEMBL document CHEMBL1201862, “PubChem BioAssay data set” (2004).
Active and inactive are the calls of the source.

What was measured:
Bcl-2-like protein 10 = Bcl-2-like protein 10 (Homo sapiens, UniProt Q9HD36); experiment: Bcl-B/TR3 peptide binding disruption – biochemical, fluorescence polarization, FITC-TR3 peptide, selectivity assay for Bfl-1 inhibitor project, primary screen (AID 748);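 also: fluorescence polarization from a fluorescein-labelled TR3 peptide binding purified Bcl-B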
[1] = Cytotoxicity screening for potential Inhibitors of Bacterial Capsule Biogenesis. [Related pubchem assays (depositor defined):AID488970]; format: functional
[2] = target: FAD-linked sulfhydryl oxidase ALR (Homo sapiens, UniProt P55789); experiment: ALR-catalysed DTT oxidation blockers – biochemical, H2O2 detection, luminescence, cherry-pick, dose response (AID 493248)
Ephrin type-A receptor 4 = Ephrin type-A receptor 4 (Mus musculus, UniProt Q03137); experiment: EphA4 ligand-binding antagonists – biochemical, colorimetric, mouse EphA4, primary screen (AID 689); format: functional
Trypsin = Trypsin (Sus scrofa, UniProt P00761); experiment: trypsin protease activity blockade – biochemical, quenched peptide fluorescence, cherry-pick, selectivity assay for Rce1 protease inhibitor project, dose response (AID 488789)
CAAX prenyl protease 2 = target: T1, CAAX prenyl protease 2 (Saccharomyces cerevisiae S288c, UniProt Q03530); format: biochemical
T1 sequence (Q03530 whole entry): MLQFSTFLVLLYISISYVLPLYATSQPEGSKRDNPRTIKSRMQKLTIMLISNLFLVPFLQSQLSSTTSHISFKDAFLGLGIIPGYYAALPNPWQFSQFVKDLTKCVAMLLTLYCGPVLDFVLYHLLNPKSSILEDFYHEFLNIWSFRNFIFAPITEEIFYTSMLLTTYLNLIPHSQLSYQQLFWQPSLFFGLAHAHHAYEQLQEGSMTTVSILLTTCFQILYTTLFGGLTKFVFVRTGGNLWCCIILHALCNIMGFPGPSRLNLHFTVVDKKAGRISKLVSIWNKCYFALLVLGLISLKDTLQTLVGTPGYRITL

CAAX prenyl protease 1 = CAAX prenyl protease 1 (Saccharomyces cerevisiae S288c, UniProt P47154); experiment: yeast CAAX protease Ste24 inhibition – biochemical, S. cerevisiae, plate reader, cherry-pick, dose response (AID 488815)
[3] = microbe, parasite or virus in culture; format: functional; conditions: Mycobacterium tuberculosis
[4] = target: NACHT, LRR and PYD domains-containing protein 3 (Homo sapiens, UniProt Q96P20); experiment: NALP3 inhibitors in yeast, dose response, luminescent (AID 488799); format: functional
[5] = target: Serine/threonine-protein phosphatase PP1-alpha catalytic subunit (Homo sapiens, UniProt P62136); experiment: inhibition of protein phosphatase 1 activity – biochemical, fluorescence, dose response (AID 2403);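 also: phosphatase turnover of OMFP into fluorescent 3-O-methylfluorescein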
[6] = Trypanosoma cruzi growth suppression in host cells – NIH3T3 host cells, beta-gal luminescence, confirmation (AID 2044); format: functional, cell-based;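 also: intracellular parasites grown in NIH/3T3 mouse fibroblasts as host cells; luminescent beta-galactosidase reporter signal from transgenic T. cruzi replicating inside host cells; inhibitors lower the luminescence signal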
[7] = target: Serine/threonine-protein phosphatase (Homo sapiens, UniProt Q9BPW0); experiment: Counterscreen for inhibitors of PP1: fluorescence-based biochemical high throughput dose response assay to identify inhibitors of Protein Phosphatase 5 (PP5). [Related pubchem assays: 2034 (Summary (PP5 inhibitors)), 1987 (PP5 inhibitors in singlate), 2235 (PP1 inhibitors in singlate)]
[8] = NIH3T3 cell viability loss – ATP luminescence, mouse fibroblasts, counter-screen, dose response (AID 2010); format: functional, cell-based;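 also: cells exposed to compound for about 90 hours before reading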
[9] = reduction of Shn3 3'UTR-driven luciferase in osteoblasts – cell-based, Clone20 osteoblasts, firefly luciferase, cherry-picked, dose response (AID 624132); format: functional;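 also: firefly luciferase luminescence from reporter carrying the Shn3 3'UTR in osteoblasts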
[10] = loss of viability in HepG2 cells – cell-based, CellTiter-Glo, cherry-picked, cytotoxicity control for Shn3 inhibitor project, dose response (AID 624134); format: functional
[11] = non-specific 3'UTR reporter inhibition in Clone20-Shn3RL – cell-based, Renilla luciferase, cherry-picked, counter-screen for Shn3 inhibitor project, dose response (AID 624133); format: functional
[12] = target: T2, Mannose-6-phosphate isomerase (Homo sapiens, UniProt P34949); experiment: phosphomannose isomerase inhibition – biochemical, fluorescence intensity, confirmation (AID 1535)
T2 sequence (P34949 whole entry): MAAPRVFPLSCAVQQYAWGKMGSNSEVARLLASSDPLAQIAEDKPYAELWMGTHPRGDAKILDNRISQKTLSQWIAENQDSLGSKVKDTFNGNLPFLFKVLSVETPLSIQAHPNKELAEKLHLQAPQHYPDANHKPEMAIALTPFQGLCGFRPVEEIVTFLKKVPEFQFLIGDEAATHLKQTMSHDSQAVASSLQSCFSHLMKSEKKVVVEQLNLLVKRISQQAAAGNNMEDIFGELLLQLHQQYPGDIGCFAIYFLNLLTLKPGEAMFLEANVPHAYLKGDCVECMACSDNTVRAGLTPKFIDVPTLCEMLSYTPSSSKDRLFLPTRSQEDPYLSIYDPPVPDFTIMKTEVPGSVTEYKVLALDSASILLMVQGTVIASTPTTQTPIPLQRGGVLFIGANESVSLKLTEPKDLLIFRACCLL

Phosphomannomutase 2 = Phosphomannomutase 2 (Homo sapiens, UniProt O15305); experiment: Counter screen SAR assay for PMM2 inhibitors via a fluorescence intensity assay. [Related pubchem assays (depositor defined):AID1545, AID1574]
[13] = target: Phosphoethanolamine/phosphocholine phosphatase (Homo sapiens, UniProt Q8TCT1); experiment: SAR assay for compounds that inhibit PHOSPHO1. [Related pubchem assays (depositor defined):AID1545, AID1565, AID1574]
Aminopeptidase N = Aminopeptidase N (Plasmodium falciparum FcB1/Columbia, UniProt O96935); experiment: malaria alanyl aminopeptidase activity blockers – biochemical, fluorogenic H-Leu-NHMec substrate, 1536-well (AID 1445); set-up: species or system Plasmodium falciparum 3D7, 3D7

NACHT, LRR and PYD domains-containing protein 3, sequence (Q96P20 whole entry, the tested form may be a part): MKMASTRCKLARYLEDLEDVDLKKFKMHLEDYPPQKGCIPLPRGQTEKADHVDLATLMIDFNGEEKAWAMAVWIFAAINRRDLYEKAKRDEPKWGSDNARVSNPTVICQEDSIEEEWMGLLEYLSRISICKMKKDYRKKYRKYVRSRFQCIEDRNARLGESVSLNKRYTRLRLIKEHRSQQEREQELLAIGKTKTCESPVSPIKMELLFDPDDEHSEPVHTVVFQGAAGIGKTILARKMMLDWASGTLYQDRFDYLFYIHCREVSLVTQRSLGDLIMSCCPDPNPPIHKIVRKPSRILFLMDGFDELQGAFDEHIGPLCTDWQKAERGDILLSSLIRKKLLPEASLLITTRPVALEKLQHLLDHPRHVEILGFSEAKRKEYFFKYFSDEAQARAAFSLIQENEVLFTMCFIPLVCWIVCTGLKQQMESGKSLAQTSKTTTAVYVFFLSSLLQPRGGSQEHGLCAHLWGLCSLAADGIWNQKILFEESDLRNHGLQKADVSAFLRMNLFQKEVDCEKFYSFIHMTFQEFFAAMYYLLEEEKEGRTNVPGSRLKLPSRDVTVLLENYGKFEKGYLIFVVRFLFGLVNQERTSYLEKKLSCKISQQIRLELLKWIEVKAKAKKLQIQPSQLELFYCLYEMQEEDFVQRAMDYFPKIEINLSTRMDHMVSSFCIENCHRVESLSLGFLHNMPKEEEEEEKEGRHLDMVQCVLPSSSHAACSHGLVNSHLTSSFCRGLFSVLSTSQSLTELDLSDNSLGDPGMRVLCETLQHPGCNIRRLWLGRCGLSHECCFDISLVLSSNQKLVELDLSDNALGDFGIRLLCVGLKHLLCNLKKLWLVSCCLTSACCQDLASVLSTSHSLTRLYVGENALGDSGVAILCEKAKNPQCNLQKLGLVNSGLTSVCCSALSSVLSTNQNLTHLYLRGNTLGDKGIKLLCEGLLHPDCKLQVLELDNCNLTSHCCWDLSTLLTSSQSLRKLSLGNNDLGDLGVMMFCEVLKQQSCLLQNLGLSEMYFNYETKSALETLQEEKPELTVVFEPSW
FAD-linked sulfhydryl oxidase ALR, sequence (P55789 whole entry): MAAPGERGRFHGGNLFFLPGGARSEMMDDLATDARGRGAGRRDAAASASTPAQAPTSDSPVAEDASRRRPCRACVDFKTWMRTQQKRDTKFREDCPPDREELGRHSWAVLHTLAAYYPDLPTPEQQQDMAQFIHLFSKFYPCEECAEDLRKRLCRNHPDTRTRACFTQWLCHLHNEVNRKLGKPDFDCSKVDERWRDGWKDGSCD
CAAX prenyl protease 1, sequence (P47154 whole entry): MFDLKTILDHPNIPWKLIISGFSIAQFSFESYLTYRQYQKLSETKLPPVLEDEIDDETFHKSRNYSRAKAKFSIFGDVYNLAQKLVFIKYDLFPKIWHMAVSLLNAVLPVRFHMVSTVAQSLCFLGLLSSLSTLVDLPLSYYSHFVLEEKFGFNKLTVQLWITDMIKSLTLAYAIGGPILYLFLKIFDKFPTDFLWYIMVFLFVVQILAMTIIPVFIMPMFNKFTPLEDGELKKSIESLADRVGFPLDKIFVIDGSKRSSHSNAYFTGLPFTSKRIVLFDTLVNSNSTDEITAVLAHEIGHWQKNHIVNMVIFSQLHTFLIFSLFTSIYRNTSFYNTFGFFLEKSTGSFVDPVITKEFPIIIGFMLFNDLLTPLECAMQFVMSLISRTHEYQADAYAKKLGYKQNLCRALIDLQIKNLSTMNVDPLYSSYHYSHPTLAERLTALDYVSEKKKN
Bcl-2-like protein 10, sequence (Q9HD36 whole entry): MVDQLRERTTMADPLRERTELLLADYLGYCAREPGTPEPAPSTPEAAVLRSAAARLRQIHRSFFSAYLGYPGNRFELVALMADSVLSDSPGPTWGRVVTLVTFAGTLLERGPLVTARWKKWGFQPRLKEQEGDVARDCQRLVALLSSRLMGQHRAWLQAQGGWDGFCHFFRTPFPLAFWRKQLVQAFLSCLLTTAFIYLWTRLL
Phosphoethanolamine/phosphocholine phosphatase, sequence (Q8TCT1 whole entry): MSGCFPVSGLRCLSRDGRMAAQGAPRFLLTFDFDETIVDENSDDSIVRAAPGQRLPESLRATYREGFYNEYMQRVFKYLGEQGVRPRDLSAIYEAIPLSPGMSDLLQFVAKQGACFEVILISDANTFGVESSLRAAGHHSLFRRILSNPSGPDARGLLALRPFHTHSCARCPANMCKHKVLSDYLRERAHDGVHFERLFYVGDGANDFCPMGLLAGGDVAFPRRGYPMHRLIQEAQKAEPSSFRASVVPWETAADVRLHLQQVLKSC
Serine/threonine-protein phosphatase, sequence (Q9BPW0 whole entry): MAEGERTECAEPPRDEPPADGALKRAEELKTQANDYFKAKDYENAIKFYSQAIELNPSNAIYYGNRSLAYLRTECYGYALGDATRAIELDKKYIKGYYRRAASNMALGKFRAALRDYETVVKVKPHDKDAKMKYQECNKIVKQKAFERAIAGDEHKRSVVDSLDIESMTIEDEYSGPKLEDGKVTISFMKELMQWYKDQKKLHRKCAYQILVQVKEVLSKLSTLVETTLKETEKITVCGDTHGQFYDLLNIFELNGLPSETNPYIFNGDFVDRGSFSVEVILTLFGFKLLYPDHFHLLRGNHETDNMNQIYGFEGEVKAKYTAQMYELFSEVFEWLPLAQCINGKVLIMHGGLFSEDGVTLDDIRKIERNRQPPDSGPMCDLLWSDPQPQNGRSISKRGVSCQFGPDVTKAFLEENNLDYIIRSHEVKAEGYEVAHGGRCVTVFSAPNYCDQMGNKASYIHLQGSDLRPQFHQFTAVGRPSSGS
Serine/threonine-protein phosphatase PP1-alpha catalytic subunit, sequence (P62136 whole entry): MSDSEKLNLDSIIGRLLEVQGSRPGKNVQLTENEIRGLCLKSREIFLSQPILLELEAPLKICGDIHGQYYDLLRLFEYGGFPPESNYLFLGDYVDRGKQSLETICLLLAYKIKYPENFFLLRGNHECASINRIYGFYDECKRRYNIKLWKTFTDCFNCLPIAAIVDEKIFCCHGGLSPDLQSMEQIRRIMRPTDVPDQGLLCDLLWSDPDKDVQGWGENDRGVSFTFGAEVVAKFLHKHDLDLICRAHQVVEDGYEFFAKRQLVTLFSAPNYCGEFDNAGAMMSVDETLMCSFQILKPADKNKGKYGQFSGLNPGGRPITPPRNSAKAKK
Phosphomannomutase 2, sequence (O15305 whole entry): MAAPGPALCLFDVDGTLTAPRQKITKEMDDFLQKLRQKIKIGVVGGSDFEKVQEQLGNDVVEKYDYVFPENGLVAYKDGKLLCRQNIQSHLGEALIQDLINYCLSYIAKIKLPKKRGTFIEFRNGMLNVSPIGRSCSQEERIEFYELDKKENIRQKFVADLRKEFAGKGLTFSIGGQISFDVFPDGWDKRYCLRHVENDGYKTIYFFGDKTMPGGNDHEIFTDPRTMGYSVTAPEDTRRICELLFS
Trypsin, sequence (P00761 whole entry): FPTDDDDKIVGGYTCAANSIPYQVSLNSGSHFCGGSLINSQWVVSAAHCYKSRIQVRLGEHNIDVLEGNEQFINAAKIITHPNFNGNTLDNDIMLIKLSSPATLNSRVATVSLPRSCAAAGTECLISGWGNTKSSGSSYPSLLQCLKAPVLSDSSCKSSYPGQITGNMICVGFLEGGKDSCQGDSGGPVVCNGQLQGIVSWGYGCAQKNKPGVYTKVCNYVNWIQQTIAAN
Ephrin type-A receptor 4, sequence (Q03137 whole entry): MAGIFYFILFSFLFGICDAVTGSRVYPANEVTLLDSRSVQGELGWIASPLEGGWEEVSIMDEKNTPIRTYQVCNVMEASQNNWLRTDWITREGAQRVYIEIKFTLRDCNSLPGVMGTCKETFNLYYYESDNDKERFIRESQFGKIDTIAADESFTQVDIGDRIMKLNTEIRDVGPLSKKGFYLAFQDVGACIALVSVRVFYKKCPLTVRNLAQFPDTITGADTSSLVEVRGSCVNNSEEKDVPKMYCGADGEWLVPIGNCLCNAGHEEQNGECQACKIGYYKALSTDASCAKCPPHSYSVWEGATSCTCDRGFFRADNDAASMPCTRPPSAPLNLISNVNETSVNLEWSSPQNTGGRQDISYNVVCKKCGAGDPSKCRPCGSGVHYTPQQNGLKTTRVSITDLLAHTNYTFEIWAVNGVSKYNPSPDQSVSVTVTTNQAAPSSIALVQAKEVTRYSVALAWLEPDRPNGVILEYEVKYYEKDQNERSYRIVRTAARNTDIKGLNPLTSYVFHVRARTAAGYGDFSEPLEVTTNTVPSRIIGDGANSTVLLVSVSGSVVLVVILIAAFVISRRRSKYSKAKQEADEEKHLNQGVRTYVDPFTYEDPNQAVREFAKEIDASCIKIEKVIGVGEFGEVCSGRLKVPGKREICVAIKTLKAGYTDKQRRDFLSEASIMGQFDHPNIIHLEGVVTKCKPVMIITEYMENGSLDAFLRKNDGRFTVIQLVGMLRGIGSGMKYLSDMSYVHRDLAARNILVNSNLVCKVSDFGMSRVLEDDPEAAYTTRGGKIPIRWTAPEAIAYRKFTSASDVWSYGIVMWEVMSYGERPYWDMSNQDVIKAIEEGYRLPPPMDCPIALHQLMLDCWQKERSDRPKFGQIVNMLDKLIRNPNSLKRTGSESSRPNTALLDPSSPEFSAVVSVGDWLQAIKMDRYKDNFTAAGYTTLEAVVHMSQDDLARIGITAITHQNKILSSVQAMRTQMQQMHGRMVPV

CCn1ccc(C(=O)Nc2ccc(S(=O)(=O)Nc3ccccc3OC)cc2)n1
IC50 (Bcl-2-like protein 10): > 100 µM (inactive)

O=C(Nc1ccncc1)c1ccc2ncsc2c1
CC50 [1]: > 100 µM (active) | AC50 [2]: 1.34 µM (active)

O=C(O)c1ccc(CN(c2ccccn2)S(=O)(=O)c2ccccc2)cc1
IC50 (Ephrin type-A receptor 4): > 100 µM (not active) | AC50 (Trypsin): 16.6 µM (active) | AC50 (CAAX prenyl protease 2): 22 µM (active) | AC50 (CAAX prenyl protease 1): 3.92 µM (active)

O=C(NCCC1=CCCCC1)c1c(O)nc2sccn2c1=O
CC50 [3]: 13.8 µM (active) | IC50 [4]: 3.8 µM (active)

CCOC(=O)c1cnc(-n2nc(C)cc2C)nc1NCc1ccc2c(c1)OCO2
IC50 [5]: 5.21 µM (active) | EC50 [6]: 2.36 µM (active) | IC50 [7]: > 67 µM (not active) | EC50 [8]: > 60 µM (not active) | AC50 [9]: 8.74 µM (active) | AC50 [10]: 63 µM (active) | AC50 [11]: 16.1 µM (active)

O=c1c2ccc([N+](=O)[O-])cc2sn1-c1cc(C(F)(F)F)ccc1Cl
IC50 [12]: > 50 µM (inactive) | IC50 (Phosphomannomutase 2): > 100 µM (inactive) | IC50 [13]: 0.252 µM (active)

CC(C)Oc1ccc(C(=O)N/N=C/c2ccc(-c3ccc(S(=O)(=O)Nc4ncccn4)cc3)o2)cc1
IC50 (Aminopeptidase N): 23.1 µM (active)
